In patent publication US20170216360A1, “METHODS AND COMPOSITIONS FOR IMPROVING HOMING OF CELLS INCLUDING MESENCHYMAL STEM CELLS” (SANOFI, priority 2014, published 2017):
Structures can show the parent of a compound that is named as a salt.

What was measured:
Format in all cases: cell-based, human
[1] = test system: CD11a surface expression on huMSCs; test: Medium throughput screen: CD11a surface expression on MSCs, PE-CY5 anti-CD11a antibody, laser-scanning fluorescence microplate cytometer
CD18 mRNA = CD18 mRNA analysis by qPCR in MSCs; conditions: 3 μM
Experimental: The mRNA levels of CD11a and CD18 in response to Ro-31-8425 pretreatment of MSCs were analyzed by qPCR. Specifically, MSCs were treated with Ro-31-8425 (3 μM) or vehicle control (0.1% DMSO) for 2 h, 4 h, 8 h, 14 h or 24 h. Cells were then trypsinized, washed with ice-cold PBS and pelleted (500 g for 5 min at 4° C.) at during the treatment and immediately stored at −80° C. RNA extraction was then performed. Briefly, the frozen cell pellet was crushed with a tissue pestle (Fisher Scientific) in the presence of 1 mL TRI RNA isolation reagent (Sigma Aldrich). Upon complete pellet dissociation, 0.2 mL chloroform was added and suspension was vortexed for 15 s, followed by incubation at ambient temperature for 10 min. The mixture was centrifuged at 15,000 g for 15 min at […], the resulting supernatant aqueous phase was removed, thoroughly mixed with 0.5 mL isopropanol (Sigma Aldrich) and further centrifuged (at 15,000 g for 10 min) to obtain the total RNA precipitates. The RNA pellets were washed twice in 75% ethanol, and air dried for 10 min at room temperature before being reconstituted with 20 uL ultrapure H2O. The quality and quantity of the total RNAs were measured and verified using Nanodrop ND-2000 Spectrophotometer (NanoDrop Products). Subsequently, equal amount of total RNA (2 μg) was reverse transcribed into cDNA using a QuantiTect reverse transcription kit (Qiagen). […]

[2] = test system: MSC firm adhesion to ICAM-1-coated surface; test: ICAM-1 firm adhesion assay under shear flow, with antibody blocking
Experimental: Cell adhesion experiments were performed using Bioflux1000 (FluxionBio), allowing accurate control over shear flow. A special 48-well plate was used, in which a microfluidic channel (350 μm×70 μm) connects each pair of adjacent wells (termed inlet and outlet wells). The plate was placed under vacuum and the channels were coated from the inlet with recombinant human E-selectin (5 μg/mL) or ICAM-1 (5 μg/mL) and incubated at 37° C. for 1 h. Prior to introducing the cells into the channel, a wash with PBS−/− from the outlet well was performed for 5 min. Compound-pretreated MSCs were introduced into the channel, followed by attachment period of 2 minutes (no flow applied during the attachment period). Attached cells were then subjected to increasing shear flow, ranging from 0.25 dynes/cm^2 for up to 10 dynes/cm^2. Images were acquired using the Montage software and cell adhesion to the coated channels following subjection to shear flow was examined. See also disclosure elsewhere herein.
Pre-confluent MSCs were incubated for 24 hours with the indicated small molecules (3 μM). MSCs were than detached, washed and incubated for 30 minutes with an antibody reagent. The following antibodies are used: anti-human CD11a (clone: HI111), anti-human CD90 (clone: MAB2067), mouse anti-human CD11a (clone: TS1/22), and mouse IgG1 isotype control. Cells were then introduced into the channel and given 2 minutes to adhere before being subjected to increasing shear flow for a firm adhesion assay on a microfluidic channel coated with E-selectin or ICAM-1.

Cn1cc(C2=C(c3c4n(c5ccccc35)CCC(CN)C4)C(=O)NC2=O)c2ccccc21 (centres unmarked) [Compound 1929, 3-(8-aminomethyl-6,7,8,9-tetrahydro-pyrido[1,2-a]indol-10-yl)-4-(1-methyl-1H-indol-3-yl)-pyrrole-2,5-dione hydrochloride]
Effect on the expression of other homing ligands [1]: no observed effect | mRNA levels of CD18 in MSCs (CD18 mRNA): did not upregulate | CD11a+ part of the induced ICAM-1 adhering population ([2]; 3 μM for 24 h): approximately 7% | Increase in MSC firm adhesion to ICAM-1-coated substrate compared to vehicle-treated MSCs ([2]; 3 μM for 24 h): > 3 fold | New MSC sub-population with induced ICAM-1 firm adhesion, share of entire population ([2]; 3 μM for 24 h): 68% | Part expressing other ICAM-1-binding domains ([2]; 3 μM for 24 h): 61% | Adhered cells on ICAM-1-coated surface before CD11a blocking ([2]; pretreated MSC): 90% | Adhered cells on ICAM-1-coated surface following CD11a blocking ([2]; pretreated MSC, CD11a blocking Ab): 50%
